In patent publication US11319322B2, “Substituted aryl ether compound, preparation method thereof, pharmaceutical composition and use thereof” (Xiamen University, priority 2017, dated 2022) one finds GI50 data, which are given here for 21 compounds.

One test concerns the target T1, KIF5B-RET-BaF3 (Homo sapiens, UniProt P07949).
T1 construct: fused on or other part: P33176 (Kinesin-1 heavy chain)
Put plainly: Growth inhibition of KIF5B-RET-BaF3 cells stably transfected with kinase (MTS). The conditions noted are these: 48 h, read-out: KIF5B-RET (IC50/nM). In kind it is cell-based. The method, then: (§1) Growth inhibitory activity of compounds on cell lines stably transfected with kinase
(§2) The activity of compounds against kinase RET is evaluated by their effect of inhibiting growth of cell lines stably transfected with kinase CCDC6-RET-BaF3, KIF5B-RET-BaF3, and wild-type BaF3 (Proc. Natl. Acad. Sci. USA., 2006, 103, 3153-8.). The growth of the cell lines stably transfected with kinase CCDC6-RET-BaF3, KIF5B-RET-BaF3 depends on their kinase activity. If a compound can inhibit the activity of the kinase RET per se or the activity of the RET signaling pathway, the compound can inhibit the growth of BaF3 cells stably transfected with kinase. […] Therefore, a larger ratio between IC50 of a compound to wild-type BaF3 and IC50 of the compound to the cell lines stably transfected with kinase CCDC6-RET-BaF3, KIF5B-RET-BaF3 indicates better targeting.
(§3) The specific test method is given as follows:
(§4) 1) Medium: DMEM (Dulbecco's modified eagle medium) or RPMI 1640 (containing 10% fetal bovine serum, 100 μg/mL ampicillin, 100 μg/mL streptomycin).
(§5) 2) Reagents: MTS reaction solution (containing 2 mg/mL of MTS [3-(4,5-dimethylthiazol-2-yl)-5-(3-carboxymethoxyphenyl)-2-(4-sulfophenyl)-2H-tetrazolium, inner Salt]; 100 μg/mL PES (phenazine […])).
(§6) 3) Compound test: cells stably transfected with kinase (CCDC6-RET-BaF3, KIF5B-RET-BaF3) or wild-type BaF3 cells (2×10^4 cells/well) were incubated into a 96-well culture plate, the volume of cell culture fluid was 90 μL, and then 10 μL of the compound at each gradient concentration was added (the highest concentration was 10 μM, which was diluted stepwise by ⅓, and 8 concentration points were set in total; the system contained 0.1% DMSO (dimethyl sulfoxide)). The cell plate with uniformly mixed compound was cultured in a cell culture incubator (37° C.; 5% CO2) for 48 h, then 20 μL of MTS reaction solution was added, uniformly mixed and incubated in the cell culture incubator (37° C.; 5% CO2) for 1-4 hr, OD values at 490 nm were measured by a microplate reader (VARIOSKAN FLASH, Thermo). Three parallels were set in each group of experiments, with 0.1% (a final concentration) DMSO as a negative control, and a medium without cells or compounds as a blank control. The cell growth inhibition rate was calculated by the following formula: Cell growth inhibition rate %=1−(ODexperimental group−ODblank group)/(ODnegative group−ODblank group)×100%
(§7) 4) IC50 calculation: The semi-inhibitory concentration of the compound acting on cell growth was calculated using GradPad Prism 5 software according to the measured cell growth inhibition rate.

Another test deals with T2, CCDC6-RET-BaF3 (Homo sapiens, UniProt P07949).
T2 construct: fused on or other part: Q16204 (Coiled-coil domain-containing protein 6)
Put plainly: Growth inhibition of CCDC6-RET-BaF3 cells stably transfected with kinase (MTS). In kind it is cell-based. Conditions: 48 h, read-out: CCDC6-RET (IC50/nM). The method, then: as §1, §2, §3, §4, §5, §6, §7

T2 sequence (P07949 whole entry, change not shown, the tested form may be a part): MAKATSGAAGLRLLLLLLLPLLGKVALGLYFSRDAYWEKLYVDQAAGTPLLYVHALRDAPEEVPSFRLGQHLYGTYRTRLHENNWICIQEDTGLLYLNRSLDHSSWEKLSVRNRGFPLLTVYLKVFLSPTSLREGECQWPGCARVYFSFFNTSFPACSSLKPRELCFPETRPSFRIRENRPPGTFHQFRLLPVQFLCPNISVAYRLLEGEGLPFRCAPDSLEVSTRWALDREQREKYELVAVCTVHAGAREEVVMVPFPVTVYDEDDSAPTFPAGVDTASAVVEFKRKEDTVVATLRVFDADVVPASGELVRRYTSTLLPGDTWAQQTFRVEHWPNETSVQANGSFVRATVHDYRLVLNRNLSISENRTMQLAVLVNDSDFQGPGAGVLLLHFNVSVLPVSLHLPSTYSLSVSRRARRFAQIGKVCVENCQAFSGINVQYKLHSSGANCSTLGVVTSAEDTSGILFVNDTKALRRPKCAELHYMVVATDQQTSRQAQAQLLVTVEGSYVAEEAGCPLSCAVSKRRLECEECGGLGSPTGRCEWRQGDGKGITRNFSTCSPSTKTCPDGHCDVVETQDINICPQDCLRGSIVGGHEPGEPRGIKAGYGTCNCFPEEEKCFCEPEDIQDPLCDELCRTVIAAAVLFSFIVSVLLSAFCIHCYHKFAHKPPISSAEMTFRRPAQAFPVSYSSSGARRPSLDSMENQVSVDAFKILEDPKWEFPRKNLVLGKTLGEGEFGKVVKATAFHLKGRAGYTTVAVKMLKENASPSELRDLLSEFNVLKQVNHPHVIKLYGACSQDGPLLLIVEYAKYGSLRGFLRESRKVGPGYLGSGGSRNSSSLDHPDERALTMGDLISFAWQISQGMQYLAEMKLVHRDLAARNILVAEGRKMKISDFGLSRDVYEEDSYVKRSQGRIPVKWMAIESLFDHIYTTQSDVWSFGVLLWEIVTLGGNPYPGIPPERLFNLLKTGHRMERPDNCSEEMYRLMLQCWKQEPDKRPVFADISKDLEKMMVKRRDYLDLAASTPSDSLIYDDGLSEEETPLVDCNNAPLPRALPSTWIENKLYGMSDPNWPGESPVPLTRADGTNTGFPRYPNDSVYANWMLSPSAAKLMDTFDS
T1 sequence (P07949 whole entry, change not shown, the tested form may be a part): as above

Consider `Cc1ccc(Oc2nc(-c3cccnc3)nc3cc[nH]c23)cc1C(=O)Nc1cc(CN2CCN(C)CC2)cc(C(F)(F)F)c1` [III-r-1], for which the GI50 on KIF5B-RET-BaF3 was found to be 4770 nM; on CCDC6-RET-BaF3 it was 4450 nM. For the compound `CN1CCN(Cc2ccc(NC(=O)c3cc(Oc4nc(-c5ccc(N)cc5)nc5c4ncn5C)ccc3Cl)cc2C(F)(F)F)CC1` [I-o-9], the GI50 at KIF5B-RET-BaF3 came out at 1500 nM; on CCDC6-RET-BaF3, 1390 nM. On the same counts, the results for `Cc1ccc(Oc2nc(-c3ccc(O)cc3)nc3c2ncn3C)cc1C(=O)Nc1ccc(CN2CCN(C)CC2)c(C(F)(F)F)c1` [I-n-8] are 1330 nM and 1210 nM. With `Cc1ccc(Oc2nc(-c3ccoc3)nc3c2ncn3C)cc1C(=O)Nc1ccc(CN2CCN(C)CC2)c(C(F)(F)F)c1` [I-n-11], the GI50 is 1960 nM on KIF5B-RET-BaF3 and 1200 nM on CCDC6-RET-BaF3. In the case of `Cc1ccc(C(=O)Nc2ccc(CN3CCN(C)CC3)c(C(F)(F)F)c2)cc1Oc1nc(-c2ccoc2)nc2ccn(C)c12` [III-m-17], the values for the GI50 on KIF5B-RET-BaF3 and at CCDC6-RET-BaF3 were 2760 nM and 3150 nM, respectively. On the same counts, the results for `CN1CCN(Cc2ccc(NC(=O)c3cc(Oc4nc(-c5cccc(Cl)c5)nc5c4ncn5C)ccc3Cl)cc2C(F)(F)F)CC1` [I-o-4] are 1410 nM and 1400 nM.

As to `CC(C)n1cnc2c(Oc3ccc(Cl)c(C(=O)Nc4ccc(CN5CCN(C)CC5)c(C(F)(F)F)c4)c3)nc(-c3ccncc3)nc21` [I-o-12], the GI50 at KIF5B-RET-BaF3 is 154 nM; at CCDC6-RET-BaF3 it was 55.2 nM.

With `Cc1ccc(C(=O)Nc2ccc(CN3CCN(C)CC3)c(C(F)(F)F)c2)cc1Oc1nc(N2CCN(C)CC2)nc2c1cnn2C` [II-m-17], the GI50 amounted to 160 nM on KIF5B-RET-BaF3 and 1100 nM on CCDC6-RET-BaF3. As to `CCC(=O)NCC1CCN(c2ccc(NC(=O)c3ccc(C)c(Oc4nc(-c5cccnc5)nc5c4cnn5C)c3)cc2C(F)(F)F)CC1` [II-v-7], the GI50 on KIF5B-RET-BaF3 and at CCDC6-RET-BaF3 was 1200 nM each time.

With `Cc1ccc(Oc2nc(-c3ccncc3)nc3c2ncn3C)cc1NC(=O)c1ccc(CN2CCN(C)CC2)c(C(F)(F)F)c1` [I-j-1], the GI50 at KIF5B-RET-BaF3 was determined as 2.74 nM; on CCDC6-RET-BaF3, 0.741 nM. On the same counts, the results for `CCC(=O)NC1CCN(c2ccc(NC(=O)c3ccc(C)c(Oc4nc(-c5ccncc5)nc5ccn(C)c45)c3)cc2C(F)(F)F)CC1` [III-v-8] are 4340 nM and 10900 nM. `CC(=O)NCC1CCN(c2ccc(NC(=O)c3ccc(C)c(Oc4nc(-c5ccncc5)nc5ccn(C)c45)c3)cc2C(F)(F)F)CC1` [III-v-3]: the GI50 on CCDC6-RET-BaF3 came out at 23800 nM. In the case of `CCC(=O)NCC1CCN(c2ccc(NC(=O)c3ccc(C)c(Oc4nc(-c5ccncc5)nc5cc[nH]c45)c3)cc2C(F)(F)F)CC1` [III-v-13], the GI50 at CCDC6-RET-BaF3 amounted to 18300 nM. For the compound `CCC(=O)NCC1CCN(c2ccc(NC(=O)c3ccc(C)c(Oc4nc(-c5cccnc5)nc5ccn(C)c45)c3)cc2C(F)(F)F)CC1` [III-v-5], the GI50 at CCDC6-RET-BaF3 was < 4 nM. On to `CCC(=O)NC1CCN(c2ccc(NC(=O)c3ccc(C)c(Oc4nc(-c5cccnc5)nc5ccn(C)c45)c3)cc2C(F)(F)F)CC1` [III-v-7], for which the GI50 at CCDC6-RET-BaF3 turned out to be 148000 nM.

Turning to `CCn1ncc2c(Oc3cc(C(=O)Nc4ccc(CN5CCN(C)CC5)c(C(F)(F)F)c4)ccc3C)nc(-c3ccncc3)nc21` [II-m-22], the GI50 on CCDC6-RET-BaF3 is > 10000 nM.

Take `CC(=O)NC1CCN(c2ccc(NC(=O)c3ccc(C)c(Oc4nc(-c5cccnc5)nc5ccn(C)c45)c3)cc2C(F)(F)F)CC1` [III-v-2]: the GI50 on CCDC6-RET-BaF3 is < 4 nM. Consider `CCS(=O)(=O)NC1CCN(c2ccc(NC(=O)c3ccc(C)c(Oc4nc(-c5cccnc5)nc5ccn(C)c45)c3)cc2C(F)(F)F)CC1` [III-v-10], for which the GI50 at CCDC6-RET-BaF3 is < 4 nM. Turning to `Cc1ccc(Oc2nc(-c3ccncc3)nc3c2cnn3C)cc1NC(=O)c1ccc(CN2CCN(C)CC2)c(C(F)(F)F)c1` [II-j-2], at CCDC6-RET-BaF3, the GI50 was determined as 13.1 nM. Take `CCC(=O)NCC1CCN(c2ccc(NC(=O)c3ccc(C)c(Oc4nc(-c5cccnc5)nc5ccn(C)c45)c3)cc2C(F)(F)F)CC1` [III-v-4]: on CCDC6-RET-BaF3, the GI50 is < 4 nM. On to `CC(=O)NCC1CCN(c2ccc(NC(=O)c3ccc(C)c(Oc4nc(-c5cccnc5)nc5ccn(C)c45)c3)cc2C(F)(F)F)CC1` [III-v-6], for which the GI50 at CCDC6-RET-BaF3 was < 4 nM.
